Results: patent US6750177B2, “Herbicide combination with acylated aminophenylsulfonylureas” (priority 2002, dated 2004)
Where two headings read alike, the source gives them in different places.

Tests used:
Type in all cases: in vivo
Setaria spp. = assay: Herbicidal action (field trials), Setaria spp.; conditions: field trial
Protocol: (§1) The seeds or rhizome pieces of typical harmful plants were planted and grown under natural field conditions. Before the harmful plants had emerged or after the harmful plants had emerged, they were treated, as a rule at the 2- to 8-leaf stage, with various dosages of the compositions according to the invention at a water application rate of 100 to 400 I/ha (converted).
(§2) After the treatment (approx. 4-6 weeks after application), the herbidical activity of the active ingredients or active ingredient mixtures was scored visually by comparing the treated plots with the untreated control plots. Damage and development of all aerial parts of the plants was recorded. Scoring was done on a percentage scale (100% action=all plants dead; 50% action=50% of the plants and green plant parts dead; 0% action=no discernible action=like control plot). The score figures of in each case 4 plots was averaged.
(§3) The results are shown in the tables which follow, the action when using active ingredients (A+B) and (C) independently being stated in brackets.

Maize = tested on: Maize
Protocol: as §1, §2, §3

Polygonum convolvulus = assay: Herbicidal action (field trials), Polygonum convolvulus; conditions: Fallopia convolvulus, field trial
Protocol: as §1, §2, §3

Sorghum verticillata = assay: Herbicidal action (field trials), Sorghum verticillata; conditions: 60 g As/ha, field trial
Protocol: as §1, §2, §3

COc1cc(OC)nc(NC(=O)NS(=O)(=O)c2c(C(=O)O)c(Cl)nn2C)n1 [halosulfuron (C40), 3-chloro-5-(4,6-dimethoxypyrimidin-2-ylcarbamoylsulfamoyl)-1-methylpyrazole-4-carboxylic acid]
inhibition at 36 g/ha (Setaria spp.; 36 g As/ha): 0% | Maize % damage (Maize; 36 g As/ha, field trial (table part with Setaria spp.)): 3%

COc1nc(C)nc(NC(=O)NS(=O)(=O)c2ccccc2CCC(F)(F)F)n1 [prosulfuron (C42), 1-(4-methoxy-6-methyl-1,3,5-triazin-2-yl)-3-[2-(3,3,3-trifluoropropyl)phenylsulfonyl]urea]
inhibition at 40 g/ha (Setaria spp.; 40 g As/ha): 15% | Maize % damage (Maize; 40 g As/ha, field trial (table part with Setaria spp.)): 7%

COc1c(Cl)ccc(Cl)c1C(=O)O [dicamba (C20), 3,6-dichloro-o-anisic acid]
Maize % damage (Maize; 60 g As/ha, field trial (table part with Polygonum convolvulus)): 0% | inhibition at 60 g/ha (Polygonum convolvulus; 60 g As/ha): 35%

N#Cc1cc(Br)c(O)c(Br)c1 [bromoxynil (C33), 3,5-dibromo-4-hydroxybenzonitrile]
Maize % damage (Maize; 240 g As/ha, field trial (table part with Polygonum convolvulus)): 2% | inhibition at 240 g/ha (Polygonum convolvulus; 240 g As/ha): 40%

COc1cc(OC)nc(NC(=O)NS(=O)(=O)c2ncccc2C(=O)N(C)C)n1 [nicosulfuron (C15), 2-(4,6-dimethoxypyrimidin-2-yl)-3-(3-dimethylcarbamoyl-2-pyridylsulfonyl)urea]
inhibition at 60 g/ha (Sorghum verticillata): 74% | Maize % damage (Maize; 60 g As/ha, field trial (table part with Sorghum verticillata)): 0%
